Data taken from patent US5214034A, “Catechol derivatives, and preventive and remedial preparations for regressive disorders in the central nervous system containing the same” (priority 1986, dated 1993).
Where two headings read alike, the source gives them in different places.

Experiments:
[1] = test system: rats injected with kainic acid at basal forebrain / sham-operated rats; assay: Retention of passive avoidance learning: prevention of retention deficits; format: in vivo, rat (male Sprague-Dawley); details: Table 8, i.p. 5 mg/kg on days 1, 4, 7
Experimental: (§1) Effects of the derivative on the behavioral parameters of rats injected with kainic acid at basal forebrain were characterized with regard to both prevention against deficits in retention of passive avoidance learning and promotion of recovery from damaged state by repeated learning.
(§2) Male Sprague-Dawley rats (9-10 weeks of age, 200-250 g of weight) were anesthetized with Nembutal (50 mg/kg, i.p.) and placed in a stereotaxic apparatus. Bilateral lesions of the ventral globus pallidus were made by direct stereotaxic application (0.7 mm posterior to bregma, 2.7 mm lateral to the midline, and 7.0 mm ventral to the brain surface) of 0.25 μg of kainic acid in 1 μl of PBS (pH 7.4) to prepare disordered models. Controls were sham-operated rats injected with PBS in place of kainic acid solution.
(§3) Passive avoidance procedures were performed by using a two chambered step-through passive avoidance apparatus with a guillotine door. A 3 mA scrambled shock was delivered to the dark floor grids for 3 seconds as a punishment. Habituation trial was conducted prior to the acquisition trial. Each rats were placed in the illuminated chamber and the guillotine door was raised after 10 seconds. As soon as the rats entered into the dark chamber, the door was lowered. The rats were removed after 10 seconds and returned to their home cages. […] The acquisition trial was performed similarly to the habituation trial. In the former case, a rat was placed in the illuminated room and the door was opened after 10 seconds. The door was shut immediately after the rat entered into the dark room, a scrambled foot shock was applied, and then the animal was removed. The latency to enter the dark chamber after opening the door was recorded for 300 seconds in the retention of passive avoidance. The latency exceeding 300 seconds was calculated as 300 seconds.
The preventive effects on deficits in retention were estimated by using 60 rats. Thirty rats were injected with kainic acid and other 30 rats were sham-operated with PBS.
Each groups of animals were equally divided into three groups which were received intraperitoneally 5 mg/kg of the derivative (A) (R=2H, R1 =H, R2 =n-propyl, that is, 4-n-propylcatechol), derivative A (R=--CO--, R1 =H, R2 =n-propyl) and saline respectively as a saline solution on one, four and seven days after the operation.
Table 8 illustrates the results obtained by conducting the acquisition trial 10 days after the operation and the retention test after 24 hours.

Acute toxicity (LD50) = details: mouse, in vivo
Experimental: The catechol derivative having normal type saturated lower alkyl groups on the ring was administered by intravenous injection (i.v.), intraperitoneal injection (i.p.) or oral route (p.o.) to male ddy mice of 4-week old. The LD50 values (mg/kg) were measured by an ordinary method.

NGF = NGF production in the central nervous system of normal rats by intraperitoneal injection (NGF content of brain tissue, ELISA); format: in vivo, rat (Wistar male); details: Table 7, i.p., three times every other day
Experimental: The derivative (A), e.g. R=Two H, R1 =H and R2 =n-propyl (hereinafter referred to as 4-n-propylcatechol), was administered to normal rats by intraperitoneal injection, and the effect was examined.
4-n-Propylcatechol was administered by intraperitoneal injection 4 times every other day in a dosage of 5 mg/kg. The rats were killed two days after the final administration. The NGF content of each parts in brain was measured. The content was compared with those of control group which was administered saline alone.
A variety of the derivative was administered three times every other day. The content of NGF in the forebrain after 48 hours and 7 days from the final administration was measured and illustrated in Table 7.
Wistar male rats (9-10-week old, 200-250 g of weight) were intraperitoneally injected with the test derivative in a volume of 0.5 ml as a saline solution, emulsion or suspension. Dose and administration times were the same as above. The rats were killed by a hard spinal blow two days after the final administration. Each parts of brain were dissected and subjected to the following treatment under ice cooling.
Each parts of brain were weighed and homogenized for 30 strokes by a Dounce type homogenizer in a homogenization buffer (0.1 M Tris-HCl, containing 2% bovine serum albumin fraction V, 2% gelatin, 1.0 M NaCl, 0.02% NaN3, 2 mM EDTA and 2.6 kiu/ml of aprotinin, pH 7.6) at a concentration of 10% (W/V) (only septum 5% (W/V)). Each homogenate was centrifuged at 100,000 xg for 10 minutes, and 50 μl of supernatant was added with the same amount of a dilution buffer (0.1 M Tris-HCl containing 2% bovine serum albumin fraction V, 0.05% NaN3 and 20 mM CaCl2, pH 7.6). Determination was conducted in accordance with a method of S. Furukawa et al. by using a high sensitivity ELISA system on 8-NGF which was described in J. Neurochem., 40, 734-744 (1983). Lower limit of determination is 0.25 pg/ml. Data are indicated as a mean value ±SE on the NGF content of tissue (pg/mg wet tissue) of five rats.

[2] = test system: rats injected with kainic acid at basal forebrain; assay: Promotion of recovery from retention deficits by repeated learning (passive avoidance); format: in vivo, rat (male Sprague-Dawley); design: key: latency in seconds to enter dark chamber, capped at 300 s; details: Table 9, i.p. 5 mg/kg before each trial
Experimental: as §1, §2, §3
The promoting effects on the recovery by repeated training from the damaged state of retention were acessed by using 30 rats injected with kainic acid. Rats were subjected to the acquisition trial 10 days after the operation. The rats were equally divided into 3 groups after 24 hours and injected intrapenitroneally with 5 mg/kg of 4-n-propylcatechol and the derivative (A) (R=--CO--, R=H, R2 =n-propyl) respectively as a saline solution. The remaining 10 rats were intraperitoneally injected with saline alone. The first retention trial was carried out two days after the injection. Rats which entered into the dark chamber within 30 seconds were punished by the scrambled foot shock as a training. On the next day, all animals were administered again the same amount of test derivative or saline. These animals were subjected to the second retention trial two days after the second injection.
Retention trials, punishments and additional administrations were repeated as mentioned above four times in all.

CCCc1ccc2oc(=O)oc2c1 [R = --CO--, R1 = H, R2 = n-Propyl]
Animals with more than 150 sec of latency ([1]; rats operated with kainic acid): 4 in 10 animals | Mean latency ([1]; rats operated with kainic acid, *P < 0.01 vs control): 152 ± 29 s | Animals with more than 150 sec of latency ([1]; sham-operated rats): 10 in 10 animals | Mean latency ([1]; sham-operated rats): 291 ± 7 s | LD50 (Acute toxicity (LD50); ip, intraperitoneal injection, read-out: LD50 i.p.): > 1000 mg/kg | LD50 (Acute toxicity (LD50); intravenous injection, read-out: LD50 i.v.): > 250 mg/kg | LD50 (Acute toxicity (LD50); oral route, read-out: LD50 p.o.): > 2500 mg/kg | NGF content after 48 hr. (NGF; 48 hours after final administration): 1.66 ± 0.23 pg/mg wet tissue of frontal co | NGF content after 7 days (NGF; 7 days after final administration): 2.23 ± 0.39 pg/mg wet tissue of frontal co | Mean latency, 1st retention trial [2]: 46 ± 13 | Mean latency, 4th retention trial ([2]; **P < 0.01): 284 ± 15 | Mean latency, 2nd retention trial ([2]; *P < 0.05): 167 ± 31 | Mean latency, 3rd retention trial ([2]; *P < 0.05): 236 ± 28
